What all share (format): biochemical
One assay addresses T1, DNase II (Homo sapiens, UniProt O00115).
T1 sequence (O00115 19-360): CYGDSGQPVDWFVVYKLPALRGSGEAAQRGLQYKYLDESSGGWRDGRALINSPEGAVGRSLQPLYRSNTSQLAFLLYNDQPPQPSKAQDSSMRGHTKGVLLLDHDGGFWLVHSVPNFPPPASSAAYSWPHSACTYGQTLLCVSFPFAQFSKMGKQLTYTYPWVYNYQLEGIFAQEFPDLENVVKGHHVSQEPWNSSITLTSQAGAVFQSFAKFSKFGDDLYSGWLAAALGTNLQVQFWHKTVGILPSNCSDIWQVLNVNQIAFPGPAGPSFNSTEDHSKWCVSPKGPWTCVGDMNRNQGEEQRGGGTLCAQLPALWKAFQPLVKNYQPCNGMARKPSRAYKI
Briefly: Endonuclease screening assay, specificity. An excerpt: (§1) Specificity of a potential inhibitor is important for any in vitro or in vivo application, and generally defines the usefulness of an inhibitor. To determine specificity of the inhibitors for the two EndoG inhibitors, PNR-3-80 and PNR-3-82, their IC50 values for EndoG were compared using the screening assay with the IC50 values for two other endonucleases, DNase I and DNAse II (FIG. 11). These endonucleases were chosen because they represent the majority of endonuclease activity in most mammalian cells and because of their availability as pure enzymes.
(§2) A reaction mixture was prepared in each well of a white 96-well plate (Costar, Corning, N.Y.) as follows: 0.25 μM Cy5.5-labeled oligonucleotide (described in US provisional patent filed Oct. 19, 2012, Ser. No. 61/716,097) 0.3 mM MgCl2, 10 mM Tris-HCl, pH 7.4, 1 μl DMSO containing 5 or 50 ng of test compound, and nuclease-free water for a total reaction volume of 100 μl. The background (negative control) and uninhibited EndoG samples were measured using DMSO only, or DMSO containing recombinant EndoG (4 μg/ml), respectively. After addition of EndoG, fluorescence intensity was kinetically measured on a Bio-Tek Synergy 4.0 plate reader at 37° C. and mean velocity (mRFU/min) within 20 min was automatically calculated by the plate reader. The background was subtracted prior to the calculation of EndoG activity (%). The percent of EndoG activity was calculated from the mean velocity of a compound divided by the mean velocity of DMSO with recombinant EndoG, and the obtained value multiplied by 100.

For another assay, the target named is T2, DNase I (Homo sapiens, UniProt P24855).
T2 sequence (P24855 23-282): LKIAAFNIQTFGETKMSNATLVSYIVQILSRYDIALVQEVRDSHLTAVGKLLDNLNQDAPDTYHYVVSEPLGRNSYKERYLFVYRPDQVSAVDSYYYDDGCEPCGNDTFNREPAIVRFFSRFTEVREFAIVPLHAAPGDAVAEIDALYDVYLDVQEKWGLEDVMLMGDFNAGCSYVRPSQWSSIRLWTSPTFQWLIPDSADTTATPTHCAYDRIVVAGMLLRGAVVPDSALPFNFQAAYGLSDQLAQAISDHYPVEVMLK
Briefly: Endonuclease screening assay, specificity.
Excerpt: as §1, §2

The target of the next assay is T3, HCV NS3 helicase (Hepatitis C virus genotype 1b, UniProt P26663).
T3 construct: analyze the helicase activity of NS3 helicase in the presence of the compounds; made in house
T3 sequence (P26663 1027-1657): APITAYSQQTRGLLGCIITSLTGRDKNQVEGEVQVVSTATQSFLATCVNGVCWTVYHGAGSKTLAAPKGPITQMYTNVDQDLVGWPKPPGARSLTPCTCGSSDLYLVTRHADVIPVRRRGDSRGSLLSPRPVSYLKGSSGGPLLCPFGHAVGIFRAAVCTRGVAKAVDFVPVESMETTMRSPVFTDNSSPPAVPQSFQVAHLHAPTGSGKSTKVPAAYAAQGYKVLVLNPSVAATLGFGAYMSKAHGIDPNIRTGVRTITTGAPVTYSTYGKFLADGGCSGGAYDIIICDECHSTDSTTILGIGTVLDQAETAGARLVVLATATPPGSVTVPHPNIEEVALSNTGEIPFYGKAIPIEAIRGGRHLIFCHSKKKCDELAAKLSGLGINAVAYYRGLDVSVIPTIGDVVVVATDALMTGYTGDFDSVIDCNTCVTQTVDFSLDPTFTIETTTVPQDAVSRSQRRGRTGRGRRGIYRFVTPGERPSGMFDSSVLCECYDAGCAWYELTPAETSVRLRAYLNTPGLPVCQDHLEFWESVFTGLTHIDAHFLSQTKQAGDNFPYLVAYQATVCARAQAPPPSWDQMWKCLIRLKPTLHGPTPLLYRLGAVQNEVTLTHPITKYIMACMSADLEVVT
Briefly: Fluorescence-based helicase assay. The note with it: IC50 for inhibition of NS3 helicase, mean ± standard deviation of three data sets. The method, then:
A library of compounds was screened using a previously validated quantitative assay that measures helicase activity over time. The assay relies upon helicase-catalyzed displacement of a fluorescently-labeled oligonucleotide (FIG. 13A). The concentration of enzyme and compounds used was 250 nM and 20 μM respectively. The experiments were performed in triplicate. […] Three potential helicase inhibitors were identified using the fluorescence based assay. […] The inhibitor compounds identified in our screen were ITBA-3-79, ITBA-3-82 and ITBA-3-85 (FIG. 14A). […] The IC50 value for ITBA-3-79, ITBA-3-82 and ITBA-3-85-mediated inhibition of NS3 helicase ranged˜20 μM (FIG. 14C). The ATPase activity of NS3 (50 μM) was analyzed in the presence of ITBA-3-79, ITBA-3-82 and ITBA-3-85 using a coupled spectrophotometric assay (Raney and Benkovic 1995, (FIG. 15). The protease activity of NS3 was analyzed in the presence of ITBA-3-79, ITBA-3-82 and ITBA-3-85 by using 50 nM NS3-4A and 100 nM substrate (Ac-Asp-Glu-Asp-EDANS-Glu-Glu-Abu-L-Lactoyl-Ser-Lys DABCYL-NH2, FIG. 15. The NS3 helicase activity was analyzed in the presence of 25 μM ITBA-3-79, ITBA-3-82 and ITBA-3-85 (FIG. 16).
A fluorescence based quantitative assay that measures helicase activity over time was employed to screen the compounds. The concentration of enzyme and compounds used was 250 nM and 20 μM respectively. Helicase catalyzes the unwinding of a FAM-labeled dsDNA and the resulting increase in fluorescence is plotted (λex-485 nm; λem, −528 nm). The slope of the initial part of the plot was used to calculate the percentage helicase activity. […] The IC50 value for ITBA-3-79, ITBA-3-82 and ITBA-3-85-mediated inhibition of NS3 helicase was determined using the same assay.

The target of another assay is T4, EndoG (Homo sapiens, UniProt Q14249).
T4 sequence (Q14249 49-297): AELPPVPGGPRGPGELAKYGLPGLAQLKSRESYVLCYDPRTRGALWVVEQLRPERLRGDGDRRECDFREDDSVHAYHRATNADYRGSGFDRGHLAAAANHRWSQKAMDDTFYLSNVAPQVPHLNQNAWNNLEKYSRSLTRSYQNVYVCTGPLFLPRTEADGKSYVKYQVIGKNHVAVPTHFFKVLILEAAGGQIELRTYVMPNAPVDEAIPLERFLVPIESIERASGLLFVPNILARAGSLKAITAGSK
The assay can be described thus: Plasmid incision assay. Particulars: agarose gel, FIG. 9. As for the experimental part: A reaction mixture was prepared containing 0.5 μg pECFP plasmid DNA, 2 mM CaCl2, 5 mM MgCl2, 10 mM Tris-HCl, pH 7.4, 0.5 mM dithiothreitol. The test compound [50 ng in DMSO (1 μl)] was added. Recombinant EndoG was then added to the final concentration of 200 ng/ml and the reaction was incubated for 1 h at 37° C. The reaction was terminated by adding 2 μl of 10 mM Tris-HCl, pH 7.4, 1% SDS, 25 mM EDTA, 7.2 mM bromophenol blue. The samples were run in 1% agarose gel in Tris-acetate-EDTA buffer (40 mM Tris, 20 mM acetic acid, 1 mM EDTA, pH 8), at 7 V/cm for 35 min, and DNA was stained with ethidium bromide. An EagleEye scanning densitometer (Stratagene, La Jolla, Calif.) was utilized to quantify the relative amount of endonuclease-treated plasmid DNA present in a covalently-closed circular (supercoiled) DNA, open circular DNA, or linear DNA, or in a digested form.

SMILES strings stand for the structures. Several values for one entry are separate records, joined by “and”; a condition that tells them apart may be missing. Equal values may be shown once.

Take `COc1ccc2c(c1)c(C=C1C(=O)NC(=S)NC1=O)cn2C(=O)c1ccc2ccccc2c1` [PNR-3-82]: the “effect on DNase II activity” value at DNase II was “did not have any effect”. The IC50 on DNase I is 63.3 µM; against HCV NS3 helicase, ~20 µM and 21.4 µM. Further, the “protection of supercoiled plasmid DNA from degradation by EndoG” value on EndoG was “significantly protected the plasmid DNA from degradation”.

Usually IC50 stands for the concentration needed to halve the response being measured.

The values above are taken from patent US20160075689A1, “POLYMERASE, ENDONUCLEASE, AND HELICASE INHIBITORS AND METHODS OF USING THEREOF” (THE BOARD OF TRUSTEES OF THE UNIVERSITY OF ARKANSAS, priority 2013, published 2016).
